Structures can show the parent of a compound that is named as a salt. Where two headings read alike, the source gives them in different places.
Legend:
[1] = molecular target: AOC1 (Homo sapiens (Human), UniProt P19801); test: AOC1 biochemical assay (Amplex Red)
Experimental: The Amplex® Red Assay (available from Thermo Fisher Scientific) provides a sensitive method for the detection of H2O2 generated during enzymatic reactions like the amine oxidation catalyzed by AOC1. The assay reagent is a colorless substrate (N-acetyl-3,7-dihydroxyphenoxazine) that reacts in a 1:1 stoichiometry with hydrogen peroxide (H2O2) to produce the fluorescent dye resorufin (7-hydroxyphenoxazin-3-one, excitation/emission maxima=570/585 nm).
An aliquot of 3 μL of the compound dilution is added to a 384 well plate (Optiplate, PS, flat bottom F, black, PERKIN ELMER, #6007270) in a DMSO concentration of 6.6%.
An AOC1 enzyme aliquot (#8297-AO-010, R&D Systems) is thawed on ice, diluted in reaction buffer and added in a volume of 7 μL to the wells to give a final assay concentration of 1 ng/well. After incubation of inhibitor and enzyme for 30 minutes at 37° C., the enzymatic reaction is started with the addition of 10 μL of Amplex® Red reaction mix (final assay concentration: 100 mM sodiumphosphate, 120 μM Amplex® Red reagent (#A22177 Molecular Probes), 1.5 U/mL Horseradish Peroxidase (#P8375 Sigma-Aldrich), 200 μM putrescine (#P7505 Sigma-Alrdich), 0.05% Pluronic F-127 (#P3000MP Sigma-Aldrich), pH 7.4, 37° C.).
After an incubation for 30 minutes at 37° C. the turnover of the substrate is determined directly (or after the addition of an excess of an amine-oxidase inhibitor) with a fluorescence reader (Ex 540 nm/Em 590 nm) like Envision 2104 Multilabel Reader (PERKIN ELMER).

[2] = molecular target: AOC2 (Homo sapiens (Human), UniProt O75106); test: AOC2 biochemical assay (Amplex Red)
Sequence of AOC2 (O75106 whole entry): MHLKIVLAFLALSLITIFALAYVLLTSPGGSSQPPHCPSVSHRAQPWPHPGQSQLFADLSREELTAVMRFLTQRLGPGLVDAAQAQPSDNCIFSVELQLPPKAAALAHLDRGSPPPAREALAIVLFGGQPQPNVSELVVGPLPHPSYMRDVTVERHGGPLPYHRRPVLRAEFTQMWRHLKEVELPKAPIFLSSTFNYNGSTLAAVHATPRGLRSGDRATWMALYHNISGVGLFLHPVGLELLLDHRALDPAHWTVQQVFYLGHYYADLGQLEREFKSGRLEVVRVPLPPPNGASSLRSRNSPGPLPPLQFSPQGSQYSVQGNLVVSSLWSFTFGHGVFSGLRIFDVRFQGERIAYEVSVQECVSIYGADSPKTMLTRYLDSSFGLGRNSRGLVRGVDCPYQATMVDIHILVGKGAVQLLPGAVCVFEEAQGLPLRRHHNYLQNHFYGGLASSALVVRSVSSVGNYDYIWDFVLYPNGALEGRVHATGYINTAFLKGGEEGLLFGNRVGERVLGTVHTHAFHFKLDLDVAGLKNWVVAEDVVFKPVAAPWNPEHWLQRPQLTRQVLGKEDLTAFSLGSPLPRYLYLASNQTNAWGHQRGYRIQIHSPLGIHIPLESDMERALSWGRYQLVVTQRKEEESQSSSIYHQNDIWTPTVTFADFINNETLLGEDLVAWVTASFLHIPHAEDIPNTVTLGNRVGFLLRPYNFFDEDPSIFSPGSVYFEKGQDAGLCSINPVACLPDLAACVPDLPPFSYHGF
Experimental: An aliquot of 5 μL of the compound dilution is added to a 96 well plate (flat bottom F, black, GREINER bio-one, #655900) in a DMSO concentration of 2%. […] Cells are cultured for 3 days in EMEM culture medium containing 10% FCS (#04-00-1A, Biological Industries). After washing twice with ice cold PBS, cells are lysed by mechanic homogenation and cleared supernatants are shock frozen in liquid nitrogen and stored at -80° C. […] An Aliquot of 45 μL is added to the compound dilution and incubated for 30 min at 37° C. The enzymatic reaction is started with the addition of 50 μL of Amplex® Red reaction mix (final assay concentration: 100 mM sodiumphosphate, 120 μM Amplex® Red reagent (#A22177 Molecular Probes), 1.5 U/mL Horseradish Peroxidase (#P8375 Sigma-Aldrich), 2 mM phenylethylamine (#[…] Sigma-Aldrich), 0.05% Pluronic F-127 (#P3000MP Sigma-Aldrich), pH 7.4, 37° C.). The turnover per time of the substrate is determined directly with a fluorescence reader (Ex 540 nm/Em 590 nm) like Envision 2104 Multilabel Reader (PERKIN ELMER) for 60 min.

[3] = molecular target: human AOC3 enzyme (Homo sapiens (Human), UniProt Q16853); test: AOC3 biochemical assay (MAO-Glo)
Sequence of human AOC3 enzyme (Q16853 whole entry): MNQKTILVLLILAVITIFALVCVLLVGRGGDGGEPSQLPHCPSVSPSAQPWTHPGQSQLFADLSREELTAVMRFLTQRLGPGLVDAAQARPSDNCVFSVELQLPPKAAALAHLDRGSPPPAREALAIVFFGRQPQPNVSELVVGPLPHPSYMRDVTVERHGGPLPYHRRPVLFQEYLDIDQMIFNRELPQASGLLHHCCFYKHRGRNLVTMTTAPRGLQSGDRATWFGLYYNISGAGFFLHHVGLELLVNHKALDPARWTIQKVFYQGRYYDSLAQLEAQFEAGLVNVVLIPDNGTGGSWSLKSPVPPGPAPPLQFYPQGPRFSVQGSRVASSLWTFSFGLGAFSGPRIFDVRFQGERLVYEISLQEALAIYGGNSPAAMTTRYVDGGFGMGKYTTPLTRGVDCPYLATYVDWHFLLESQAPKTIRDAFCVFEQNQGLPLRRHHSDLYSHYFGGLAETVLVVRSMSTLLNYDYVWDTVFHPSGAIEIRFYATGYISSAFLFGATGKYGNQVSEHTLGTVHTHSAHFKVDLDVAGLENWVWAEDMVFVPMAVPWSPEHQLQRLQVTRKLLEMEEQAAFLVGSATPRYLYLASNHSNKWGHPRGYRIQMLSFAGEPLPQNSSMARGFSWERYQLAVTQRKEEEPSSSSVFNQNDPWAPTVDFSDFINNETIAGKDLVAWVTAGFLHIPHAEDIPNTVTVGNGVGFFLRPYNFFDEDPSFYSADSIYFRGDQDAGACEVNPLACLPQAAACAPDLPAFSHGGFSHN
From the text: The MAO-Glo™ Assay (commercially available from PROMEGA, #V1402) provides a sensitive method for the measurement of monoamine oxidase (MAO) activity (Valley, M. P. et al., 2006, Anal. Biochem. 359: 238-246) from a variety of tissues, biofluids or recombinant expressed or purified enzymes. As substrate a derivate of the beetle luciferin ((4S)-4,5-dihydro-2-(6-hydroxybenzothiazolyl)-4-thiazole-carboxylic acid) is used, which is oxidized at a primary amine moiety. After a spontaneous elimination and a catalyzed esterase reaction, the turnover of the luciferine by the luciferase is recorded as a signal of AOC3 activity.
An aliquot of 3 μL of the compound dilution is added to a 384 well plate (Optiplate, PS, flat bottom, white, PERKIN ELMER, #6007290) with a final DMSO concentration of 6.6%. Recombinant CHO cells, overexpressing the human (1500 cells/well), mouse (1000 cells/well) or rat (500 cells/well) AOC3 enzyme are diluted in reaction buffer and added in a volume of 15 μL to the wells. After incubation for 20 minutes at 37° C., 2 μL of MAO substrate (dissolved in DMSO at 16 mM, adjusted to assay concentration in reaction buffer to a final assay concentration of 20 μM) is added and further incubated for 60 minutes at 37° C. The turnover of the substrate is determined by the addition of 20 μL of the detection-mix which was generated by the addition of reconstitution buffer with esterase (PROMEGA, #V1402) to the luciferine detection reagent (PROMEGA, #V1402). After an incubation period of 20 minutes, the luminescent signal is measured with Envision 2104 Multilabel Reader (PERKIN ELMER).

[4] = comparison table, unit μM, read-out: IC50 AOC1
[5] = comparison table, read-out: IC50 AOC2
[6] = comparison table, read-out: IC50 AOC3

Sequence of AOC1 (P19801 20-751): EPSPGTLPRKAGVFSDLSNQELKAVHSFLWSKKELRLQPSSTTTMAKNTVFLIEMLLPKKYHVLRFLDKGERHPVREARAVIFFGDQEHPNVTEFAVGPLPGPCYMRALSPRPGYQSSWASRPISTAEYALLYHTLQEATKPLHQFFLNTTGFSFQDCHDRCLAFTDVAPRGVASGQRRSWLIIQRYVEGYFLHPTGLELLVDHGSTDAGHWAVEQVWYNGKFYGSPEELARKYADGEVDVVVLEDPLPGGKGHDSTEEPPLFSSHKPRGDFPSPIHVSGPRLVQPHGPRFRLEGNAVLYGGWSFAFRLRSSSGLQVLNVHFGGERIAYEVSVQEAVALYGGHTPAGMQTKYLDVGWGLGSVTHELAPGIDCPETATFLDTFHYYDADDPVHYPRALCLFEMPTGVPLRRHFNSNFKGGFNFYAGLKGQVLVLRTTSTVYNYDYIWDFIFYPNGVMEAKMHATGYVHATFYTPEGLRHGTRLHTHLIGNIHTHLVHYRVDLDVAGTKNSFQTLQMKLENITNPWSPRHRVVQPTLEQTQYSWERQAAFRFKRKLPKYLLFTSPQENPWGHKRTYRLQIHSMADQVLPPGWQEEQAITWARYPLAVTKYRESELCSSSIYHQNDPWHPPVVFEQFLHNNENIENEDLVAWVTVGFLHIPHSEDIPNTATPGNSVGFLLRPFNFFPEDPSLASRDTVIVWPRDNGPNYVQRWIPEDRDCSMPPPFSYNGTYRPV

Row | SMILES | IC50 ([1]; read-out: AOC1 IC50) | IC50 ([2]; read-out: AOC2 IC50) | IC50 ([3]; read-out: AOC3 IC50) | IC50 [1, 4] | fold less active against AOC2 as compared to AOC3 (ratio IC50 AOC2/IC50 AOC3) [2] | IC50 [2, 5] | IC50 [3, 6] | IC50 ([1]; comparison table, read-out: IC50 AOC1)
1 | CC(=O)N(C)C1CCN(S(=O)(=O)c2ccc(OC/C(=C/F)CN)nc2)CC1 [Example 20] | > 50 µM | 192 nM | 54 nM | – | – | – | – | –
2 | CN1CCN(C2CCN(S(=O)(=O)c3ccc(OC/C(=C/F)CN)nc3)CC2)C1=O [Example 21] | > 50 µM | 190 nM | 20 nM | – | – | – | – | –
3 | COC(=O)CC1CCN(S(=O)(=O)c2ccc(OC/C(=C/F)CN)nc2)CC1 [Example 22] | > 50 µM | 188 nM | 11 nM | – | – | – | – | –
4 | CC(=O)NC1CCN(S(=O)(=O)c2ccc(OC/C(=C/F)CN)nc2)C1 (stereo not shown) [Example 23] | > 50 µM | 180 nM | 62 nM | – | – | – | – | –
5 | NC/C(=C\F)COc1ccc(S(=O)(=O)N2CC[C@H](C(=O)N3CCOCC3)C2)cn1 [Example 25] | 26.7 µM | 164 nM | 36 nM | – | – | – | – | –
6 | CC(C)(O)C1CN(S(=O)(=O)c2ccc(OC/C(=C/F)CN)nc2)C1 [Example 26] | > 50 µM | 164 nM | 45 nM | – | – | – | – | –
7 | CN(C)C(=O)[C@H]1CCN(S(=O)(=O)c2ccc(OC/C(=C/F)CN)nc2)C1 [Example 27] | > 50 µM | 160 nM | 51 nM | – | – | – | – | –
8 | CN(C)C(=O)C1CN(S(=O)(=O)c2ccc(OC/C(=C/F)CN)nc2)C1 [Example 28] | > 49.9 µM | 158 nM | 42 nM | – | – | – | – | –
9 | NC/C(=C\F)COc1ccc(S(=O)(=O)N2C[C@H]3C[C@@]3(C(=O)N3CCOCC3)C2)cn1 [Example 30] | 11.4 µM | 126 nM | 46 nM | – | – | – | – | –
10 | NC/C(=C\F)COc1ccc(S(=O)(=O)N2CC(C(N)=O)C2)cn1 [Example 31] | > 50 µM | 121 nM | 21 nM | – | – | – | – | –
11 | NC/C(=C\F)COc1ccc(S(=O)(=O)N2CC(C3CCN(C(=O)C4CC4)CC3)C2)cn1 [Example 32] | 39.5 µM | 73 nM | 17 nM | – | – | – | – | –
12 | NC/C(=C\F)COc1ccc(S(=O)(=O)N2CC[C@@H](C(N)=O)C2)cn1 [Example 33] | 33 µM | 49 nM | 15 nM | – | – | – | – | –
13 | CCNC(=O)C1(C)CCN(S(=O)(=O)c2ccc(OC/C(=C/F)CN)nc2)CC1 [Example 34] | 15.8 µM | 14 nM | 14 nM | – | – | – | – | –
14 | NC/C(=C\F)COc1ccc(S(=O)(=O)N2CC[C@H](O)C2)cn1 [Example 35, (S)-1-[6-((E)-2-Aminomethyl-3-fluoro-allyloxy)-pyridine-3-sulfonyl]-pyrrolidin-3-ol] | > 50 µM | 207 nM | 38 nM | > 50 µM | ca. 5 fold | – | – | –
15 | NC/C(=C\F)COc1ccc(S(=O)(=O)N2CC[C@@H](O)C2)cn1 [Example 36] | > 50 µM | 551 nM | 67 nM | – | – | – | – | –
16 | NC/C(=C\F)COc1ccc(S(=O)(=O)N2CC(F)(F)C2)cn1 [Example 37] | 22.6 µM | 451 nM | 15 nM | – | – | – | – | –
17 | NC/C(=C\F)COc1ccc(S(=O)(=O)N2CCCC2)cn1 [Example 38] | > 50 µM | 278 nM | 13 nM | – | – | – | – | –
18 | NC/C(=C\F)COc1ccc(S(=O)(=O)N2CCC2)cn1 [Example 39] | 17 µM | 262 nM | 19 nM | – | – | – | – | –
19 | COC1CCN(S(=O)(=O)c2ccc(OC/C(=C/F)CN)nc2)C1.O=C(O)C(F)(F)F (stereo not shown) [Example 40] | > 50 µM | 125 nM | 26 nM | > 50 µM | ca. 5 fold | 125 nM | 26 nM | –
20 | NC/C(=C\F)COc1ccc(S(=O)(=O)N2CC3CC3C2)cn1 (stereo not shown) [Example 41] | 25.4 µM | 123 nM | 5 nM | – | – | – | – | –
21 | COC1CN(S(=O)(=O)c2ccc(OC/C(=C/F)CN)nc2)C1 [Example 42] | > 50 µM | 87 nM | 20 nM | – | – | 87 nM | 20 nM | > 50 µM
22 | NC/C(=C\F)COc1ccc(S(=O)(=O)N2CCC(F)(F)C2)cn1 [Example 43] | 36.5 µM | 69 nM | 16 nM | – | – | – | – | –
23 | CNC(=O)C1CCN(S(=O)(=O)c2ccc(OC/C(=C/F)CN)nc2)CC1 [Example 44, 1-[6-((E)-2-Aminomethyl-3-fluoro-allyloxy)-pyridine-3-sulfonyl]-piperidine-4-carboxylic acid methylamide trifluoroacetate] | > 50 µM | 574 nM | 14 nM | – | – | – | – | –
24 | NC/C(=C\F)COc1ccc(S(=O)(=O)N2CCC(O)CC2)cn1.O=C(O)C(F)(F)F [Example 45] | 11.4 µM | 307 nM | 10 nM | – | ca. 30 fold | – | – | –
25 | COC1CCN(S(=O)(=O)c2ccc(OC/C(=C/F)CN)nc2)CC1 [Example 46] | > 50 µM | 234 nM | 10 nM | – | – | – | – | –
26 | NC/C(=C\F)COc1ccc(S(=O)(=O)N2CCCCC2)cn1 [Example 47] | 23.2 µM | 144 nM | 5 nM | – | – | – | – | –
27 | CC1(O)CCN(S(=O)(=O)c2ccc(OC/C(=C/F)CN)nc2)CC1 [Example 48] | 1.49 µM | 67 nM | 24 nM | – | – | – | – | –
28 | NC/C(=C\F)COc1ccc(S(=O)(=O)N2CC[C@H](C(N)=O)C2)cn1 [Example 49] | > 50 µM | 50 nM | 21 nM | – | – | – | – | –
29 | NC/C(=C\F)COc1ccc(S(=O)(=O)N2CCC(O)(C(F)(F)F)CC2)cn1 [Example 50] | > 50 µM | 24 nM | 20 nM | – | – | – | – | –

— patent US12178809B2, “Pyridinyl sulfonamide derivatives, pharmaceutical compositions and uses thereof” (Boehringer Ingelheim International GmbH, priority 2018, dated 2024)
